≈ marks a conversion by molar mass, not a printed value. Values belong to the compound of their own block, whether it stands above or below them.
Columns and labels:
AcpS = AcpS (Escherichia coli, UniProt P24224); assay: AcpS enzyme activity inhibition (IC50) by DNM compounds, [3H]acetyl-CoA / apo-ACP assay; assay type: biochemical; conditions: three individual replicates
From the text: The acpP gene encoding ACP was amplified from E. coli genomic DNA and subcloned into the pGEX4T-1 vector. This construct drives the expression of glutathione S-transferase (GST) fused to the ACP open reading frame through a linker containing a consensus sequence for thrombin cleavage. The identity and veracity of acpP was verified by DNA sequencing. BL21 E. coli cells expressing GST-ACP were suspended in ice-cold phosphate buffer saline (PBS) and lysed by sonication. The lysate was made 1% Triton X-100 and rested on ice for 30 min with occasional mixing. A clear supernatant was isolated by centrifugation at 46,000 × g for 30 min, brought to 10 mM MgCl2 and 2 mM MnCl2 and incubated at room temperature for 1 h with occasional mixing. The supplementation of the lysate to 10 mM MgCl2 and 2 mM MnCl2 favors the activity of endogenous ACP phosphodiesterase (acpH) enriching the apo- fraction of GST-ACP. GST-ACP was affinity purified upon binding to glutathione-sepharose. The ACP moiety was eluted from the affinity resin by in-column thrombin digestion. Apo-ACP was separated from holo-ACP and acylated forms of ACP by ion-exchange chromatography on a Mono-Q 5/50 GL at pH 6.1 operated from an AKTA Pure 25 platform. The purity of the apo-ACP preparation was assessed by 20% PAGE on native gels containing 0.5 M urea.
The acpS gene was amplified from S. aureus and E. coli genomic DNA and inserted into a pET23b vector using standard recombinant DNA methodology such that the protein product would result in addition of a C-terminal 6x-His tag in frame with the AcpS open reading frames. The DNA sequences inserted in the vector were sequenced and found to be identical to the known E. coli and S. aureus acpS open reading frames. Recombinant His-Tagged AcpS expression was induced by IPTG addition and overnight culture. Cell lysate was obtained by sequential aspiration through 16, 18 and 21 G needles in a buffer of 50 mM Tris-HCl (pH 8.5), 10 mM MgCl2, 2 mM DTT, 5% glycerol, and further adjusted to pH 8.1 with MES. […] In a typical AcpS enzyme activity assay, 57 µM [^3H]acetyl-CoA, 2 µg apo-ACP, 10 mM MgCl2, 5 mM DTT, 50 mM Na phosphate (pH 7.0), and AcpS in a final volume of 10 µL were incubated at room temperature in a 1.5 mL microcentrifuge tube. At 5, 10, 15, and 20 min 2 µL of reaction were added to 750 µl 10% TCA on ice. Bovine serum albumin (BSA; 20 µl of a 25 mg/mL solution) was then added to facilitate precipitation of radiolabeled protein. The samples were centrifuged at 12,000 × g for 5 min. Supernatants were removed, and the pellets were rinsed twice with 750 µl of 10% trichloroacetic acid. Pellets were resuspended in 50 µl of formic acid and transferred to scintillation vials. 2 mL of scintillation fluid was added, and the amount of [^3H]-labeled holo-ACP formed was quantified by liquid scintillation counting. The enzymatic reaction proceeded in a linear manner depending on time (10–40 min) and enzyme concentration (1–5 nM). Routinely, each data point was determined at least by triplicate.

MRSA (ATCC 33591) [1] = assay: MIC, CLSI broth microdilution; assay type: cell-based, S. aureus; conditions: three individual replicates
Procedure: The medium employed for the assay was Mueller Hinton II Broth (MHB II; Becton-Dickinson, Sparks, MD, USA). Agar plates used for the organisms were trypticase soy agar plus 5% sheep blood (BD; Sparks, MD, USA). MIC assay plates were prepared using the CLSI broth microdilution procedure. Automated liquid handlers (Multidrop 384, Biomek 2000 and Biomek FX) were used to conduct serial dilutions and liquid transfers. A standardized inoculum of each organism was prepared per CLSI methods. Suspensions were prepared to equal a 0.5 McFarland standard, followed by a 1:20 dilution in test media. The inocula were dispensed into sterile reservoirs divided by length (Beckman Colter) and the Biomek 2000 was used to inoculate the plates. Daughter plates were placed on the Biomek 2000 work surface in reverse orientation so that inoculation took place from low to high drug concentration. The Biomek 2000 delivered 10 μL of the diluted suspension into each well. These inoculations yielded a final cell concentration in the daughter plates of ~5 × 10^5 colony-forming units/mL in each well. The wells of the daughter plates ultimately contained 185 μL of broth, 5 μL of drug solution, and 10 μL of bacterial inoculum. Plates were covered with a sterile lid on the top plate, placed in plastic bags, and incubated at 35 °C for ~18 h. The microplates were viewed from the bottom using a plate viewer and the MIC was read. The MIC was recorded as the lowest concentration of drug that inhibited visible growth of the organism. Uninoculated solubility control plates were also observed for evidence of drug precipitation.

MRSA (ATCC 33591) [2] = assay: Rabbit ischemic ear wound model of infection by MRSA, topical treatment; assay type: in vivo, New Zealand White rabbits; conditions: for reduction in bacterial survival as compared to vehicle control: quantitative microbiology at day 14, topical; for wound closure: topical for 14 days, versus vehicle control
Procedure: New Zealand White rabbits from Charles River were employed for this study. Both male and female rabbits were used; sample size prevented disaggregation of data by sex. Investigators were blinded to group allocation, data collection, and data analysis. Food and water were given ad libidum and animals were acclimatized for 7 days with photoperiods of alternating 12 h light and dark at 21 °C in relative humidity of 40–50%. The formulation for delivery of DNM compounds was Glaxal base (WellSpring Pharmaceutical Canada Corp., Oakville, Canada). Formulation was performed by dissolving compound in Glaxal base to give final concentrations of 1% or 2% DNM compound (w/v). The analgesic (Buprenex 0.02 mg/kg sc) and anesthesia (isoflurane (0.5–5% with oxygen carrier 0.5–2 L/min) were used as required during procedures. An ischemia wound healing model was conducted surgically. Each wound was inoculated with 50 μl of 2 × 10^7 CFU/mL MRSA (ATCC #33591) and dressed. After 1 day, wounds were treated with either 50 μl control cream containing vehicle or 50 μl cream containing compound daily. Wounds were assessed and observations recorded using the Draize scoring system. Digital photographs of each wound were obtained and documented.

Sequence of AcpS (P24224 2-126): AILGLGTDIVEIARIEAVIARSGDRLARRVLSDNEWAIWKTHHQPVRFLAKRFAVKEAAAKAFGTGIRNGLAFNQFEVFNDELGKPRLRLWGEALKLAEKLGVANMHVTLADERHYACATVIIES

Compound: Clc1cccc(-c2ccccc2-c2cc(-c3nnn[nH]3)cc(-c3ccccc3-c3cccc(Cl)c3)c2)c1 [DNM0493]
IC50 (AcpS): 14 µM
MIC (MRSA (ATCC 33591) [1]): 2 mg/L (≈ 3.85 µM)

Compound: CC(C)(C)c1ccc(-c2cc(-c3nnn[nH]3)sc2-c2ccc(C(C)(C)C)cc2)cc1 [DNM0546]
IC50 (AcpS): 16 µM
MIC (MRSA (ATCC 33591) [1]): 2 mg/L (≈ 4.8 µM)

Compound: c1ccc(-c2ccccc2-c2cc(-c3nnn[nH]3)sc2-c2ccccc2-c2ccccc2)cc1 [DNM0489]
IC50 (AcpS): 10 µM
MIC (MRSA (ATCC 33591) [1]): 2 mg/L (≈ 4.38 µM)

Compound: Cc1ccc(-c2cc(-c3nnn[nH]3)sc2[C@@H]2CCCc3ccccc32)c2ccccc12 [DNM0636]
IC50 (AcpS): 13 µM
MIC (MRSA (ATCC 33591) [1]): 2 mg/L (≈ 4.73 µM)

Compound: c1ccc2c(c1)oc1c(-c3cc(-c4nnn[nH]4)sc3-c3cccc4c3oc3ccccc34)cccc12 [DNM0542]
IC50 (AcpS): 12 µM
MIC (MRSA (ATCC 33591) [1]): 1 mg/L (≈ 2.06 µM)

Compound: Cc1ccc(-c2ccccc2-c2cc(-c3nnn[nH]3)c(-c3ccccc3-c3ccc(C)c(C)c3)s2)cc1C [DNM0495]
IC50 (AcpS): 10 µM
MIC (MRSA (ATCC 33591) [1]): 2 mg/L (≈ 3.9 µM)

Compound: CC(C)c1cc(Cl)ccc1-c1cc(-c2nnn[nH]2)sc1-c1ccc(Cl)cc1C(C)C [DNM0548]
IC50 (AcpS): 8 µM
MIC (MRSA (ATCC 33591) [1]): 2 mg/L (≈ 4.37 µM)

Compound: CCCCc1cccc(-c2sc(-c3nnn[nH]3)c(C)c2-c2cccc(CCCC)c2)c1 [DNM0627]
IC50 (AcpS): 10 µM
MIC (MRSA (ATCC 33591) [1]): 0.25 mg/L (≈ 0.581 µM)

Compound: Cc1cc(Cl)ccc1-c1sc(-c2nnn[nH]2)c(C)c1-c1ccc(Cl)cc1C [DNM0614]
IC50 (AcpS): 13 µM
MIC (MRSA (ATCC 33591) [1]): 1 mg/L (≈ 2.41 µM)
reduction in bacterial survival as compared to vehicle control (MRSA (ATCC 33591) [2]): > 99%
wound closure (MRSA (ATCC 33591) [2]): significantly improved wound closure

Compound: Clc1ccc(-c2cc(-c3nnn[nH]3)sc2-c2ccc(Cl)cc2)cc1 [DNM0487]
IC50 (AcpS): 1 µM
MIC (MRSA (ATCC 33591) [1]): 2 mg/L (≈ 5.36 µM)
reduction in bacterial survival as compared to vehicle control (MRSA (ATCC 33591) [2]): > 99%
wound closure (MRSA (ATCC 33591) [2]): significantly improved wound closure

Compound: Cc1ccc(-c2cc(-c3ccc(Cl)cc3)cc(-c3nnn[nH]3)c2)c2ccccc12 [DNM0480]
IC50 (AcpS): 8 µM
MIC (MRSA (ATCC 33591) [1]): 2 mg/L (≈ 5.04 µM)

Compound: CCCCc1cccc(-c2cc(-c3nnn[nH]3)sc2Cc2ccccc2)c1 [DNM0626]
IC50 (AcpS): 9 µM
MIC (MRSA (ATCC 33591) [1]): 0.5 mg/L (≈ 1.34 µM)

MIC (MRSA (ATCC 33591) [1]): 0.5 mg/L (≈ 1.17 µM)
Compound: Cc1ccc(-c2cc(-c3nnn[nH]3)cc(-c3ccc(C)c4ccccc34)c2)c2ccccc12 [DNM0461]

MIC (MRSA (ATCC 33591) [1]): 2 mg/L (≈ 5.36 µM)
Compound: Clc1ccc(-c2cc(-c3nnn[nH]3)c(-c3ccc(Cl)cc3)s2)cc1 [DNM0213]

Compound: CC(C)c1cc(Cl)ccc1-c1cc(C(=O)O)sc1-c1ccc(Cl)cc1C(C)C [DNM0566]
IC50 (AcpS): 13 µM
MIC (MRSA (ATCC 33591) [1]): 1 mg/L (≈ 2.31 µM)

Compound: Cc1ccc(-c2sc(-c3ccc(Cl)cc3)cc2-c2nnn[nH]2)c2ccccc12 [DNM0473]
IC50 (AcpS): 10 µM
MIC (MRSA (ATCC 33591) [1]): 2 mg/L (≈ 4.96 µM)

Compound: Clc1ccc(-c2sc(-c3ccccc3-c3ccccc3)cc2-c2nnn[nH]2)cc1 [DNM0466]
IC50 (AcpS): 9 µM
MIC (MRSA (ATCC 33591) [1]): 1 mg/L (≈ 2.41 µM)

Compound: Cc1cc(Cl)ccc1-c1cc(-c2nnn[nH]2)sc1-c1ccc(Cl)cc1C [DNM0488]
IC50 (AcpS): 9 µM
MIC (MRSA (ATCC 33591) [1]): 2 mg/L (≈ 4.98 µM)

Compound: c1ccc(-c2cc(-c3nnn[nH]3)sc2-c2ccccc2-c2ccsc2)c(-c2ccsc2)c1 [DNM0559]
IC50 (AcpS): 9 µM
MIC (MRSA (ATCC 33591) [1]): 1 mg/L (≈ 2.13 µM)

Compound: c1ccc(-c2ccccc2-c2cc(-c3nnn[nH]3)cc(-c3ccccc3-c3ccccc3)c2)cc1 [DNM0464]
IC50 (AcpS): 9 µM
MIC (MRSA (ATCC 33591) [1]): 0.5 mg/L (≈ 1.11 µM)

Compound: Clc1ccc(Cc2sc(-c3nnn[nH]3)cc2-c2cccc(CC3CCCC3)c2)cc1 [DNM0610]
IC50 (AcpS): 9 µM
MIC (MRSA (ATCC 33591) [1]): 1 mg/L (≈ 2.3 µM)

Compound: Clc1ccc(-c2cc(-c3nnn[nH]3)cc(-c3ccccc3-c3ccccc3)c2)cc1 [DNM0479]
IC50 (AcpS): 9 µM
MIC (MRSA (ATCC 33591) [1]): 1 mg/L (≈ 2.45 µM)

Compound: Cc1ccc(-c2cc(-c3nnn[nH]3)c(-c3ccccc3-c3ccccc3)s2)c2ccccc12 [DNM0478]
IC50 (AcpS): 8 µM
MIC (MRSA (ATCC 33591) [1]): 1 mg/L (≈ 2.25 µM)

Compound: Cc1ccc(-c2sc(-c3ccccc3-c3ccccc3)cc2-c2nnn[nH]2)c2ccccc12 [DNM0472]
IC50 (AcpS): 10 µM
MIC (MRSA (ATCC 33591) [1]): 2 mg/L (≈ 4.5 µM)

From article PMC11436758, “Computer-aided drug design to generate a unique antibiotic family” (Nature Communications, 2024)
